Assay results taken from US12344597B2, “Alkoxy-substituted pyridinyl derivatives as LPA1 receptor antagonists and their use in the treatment of fibrosis” (IDORSIA PHARMACEUTICALS LTD, priority 2018, dated 2025).

What follows are molecules tested against human LPA1 receptor (Homo sapiens (Human), UniProt Q92633) (assay: Beta-arrestin recruitment assay to determine IC50 values for human LPAR1). Conditions: antagonist mode, Tango EDG2-bla U2OS cells, LPA 18:1 500 nM final.
Format: cell-based
How it was run: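 Antagonist IC50 = concentration giving 50% inhibition of maximal LPA response. Read-out is beta-lactamase reporter activity after arrestin-protease recruitment in U2OS cells bearing LPA1-TEV-Gal4-VP16 construct; cells pre-incubated 20 h, 37 °C, 5% CO2.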

human LPA1 receptor, sequence (Q92633 whole entry): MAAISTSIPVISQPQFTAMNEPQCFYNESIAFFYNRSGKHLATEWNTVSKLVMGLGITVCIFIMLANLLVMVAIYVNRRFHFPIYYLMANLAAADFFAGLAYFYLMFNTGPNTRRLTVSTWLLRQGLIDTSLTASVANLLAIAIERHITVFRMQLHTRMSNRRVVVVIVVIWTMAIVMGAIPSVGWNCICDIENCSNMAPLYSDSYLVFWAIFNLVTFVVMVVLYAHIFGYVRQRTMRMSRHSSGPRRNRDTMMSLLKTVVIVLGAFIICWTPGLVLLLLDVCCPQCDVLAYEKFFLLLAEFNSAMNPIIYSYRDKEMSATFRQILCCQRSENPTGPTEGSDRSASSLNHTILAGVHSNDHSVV

Compound | IC50
CC(=O)N(CC(=O)N1CC(C(=O)Nc2ccc(C)nc2OC(F)F)(c2ccccc2C(C)C)C1)OCc1ccccc1 [Ex 12-135, 1-(N-acetyl-N-(benzyloxy)glycyl)-N-(2-(difluoromethoxy)-6-methylpyridin-3-yl)-3-(2-isopropylphenyl)azetidine-3-carboxamide] | 8 nM
COC(=O)c1[nH]ncc1S(=O)(=O)N1CC(C(=O)Nc2ccc(C)nc2OC(F)F)(c2ccccc2C(C)C)C1 [Ex 13-22, methyl 4-((3-((2-(difluoromethoxy)-6-methylpyridin-3-yl)carbamoyl)-3-(2-isopropylphenyl)azetidin-1-yl)sulfonyl)-1H-pyrazole-5-carboxylate] | 270 nM
CCOC(=O)C(C)(C)NC(=O)N1CC(C(=O)Nc2ccc(C)nc2OC(F)F)(c2ccccc2C(C)C)C1 [Ex 17-12, ethyl 2-(3-((2-(difluoromethoxy)-6-methylpyridin-3-yl)carbamoyl)-3-(2-isopropylphenyl)azetidine-1-carboxamido)-2-methylpropanoate] | 11 nM
COc1cc(Br)cnc1NC(=O)C1(c2ccccc2C(C)C)CNC1 [Ex 71, N-(5-bromo-3-methoxypyridin-2-yl)-3-(2-isopropylphenyl)azetidine-3-carboxamide] | 564 nM
Cc1ccc(NC(=O)C2(c3ccccc3C3CC3)CN(C(=O)CC(C)(C)C(=O)O)C2)c(OC(F)F)n1 [Ex 31-1, 4-(3-(2-cyclopropylphenyl)-3-((2-(difluoromethoxy)-6-methylpyridin-3-yl)carbamoyl)azetidin-1-yl)-2,2-dimethyl-4-oxobutanoic acid] | 19 nM
CCNCCN1CC(C(=O)Nc2ccc(C)nc2OC(F)F)(c2ccccc2C(C)C)C1 [Ex 11-63, N-(2-(difluoromethoxy)-6-methylpyridin-3-yl)-1-(2-(ethylamino)ethyl)-3-(2-isopropylphenyl)azetidine-3-carboxamide] | 92 nM
CONC(=O)CC(=O)N1CC(C(=O)Nc2ccc(C)nc2OC(F)F)(c2ccccc2C(C)C)C1 [Ex 12-125, N-(2-(difluoromethoxy)-6-methylpyridin-3-yl)-3-(2-isopropylphenyl)-1-(3-(methoxyamino)-3-oxopropanoyl)azetidine-3-carboxamide] | 35 nM
Cc1ccc(NC(=O)C2(c3ccccc3C(C)C)CN(C(=O)CNS(N)(=O)=O)C2)c(OC(F)F)n1 [Ex 12-128, N-(2-(difluoromethoxy)-6-methylpyridin-3-yl)-3-(2-isopropylphenyl)-1-(sulfamoylglycyl)azetidine-3-carboxamide] | 10 nM
Cc1ccc(NC(=O)C2(c3ccccc3C(C)C)CN(C(=O)NC(C)(C)CC(=O)O)C2)c(OC(F)F)n1 [Ex 17-2, 3-(3-((2-(difluoromethoxy)-6-methylpyridin-3-yl)carbamoyl)-3-(2-isopropylphenyl)azetidine-1-carboxamido)-3-methylbutanoic acid] | 12 nM
Cc1ccc(NC(=O)C2(c3ccccc3C(C)C)CCN(C(=O)NCCO)CC2)c(OC(F)F)n1 [Ex 17-22, N4-(2-(difluoromethoxy)-6-methylpyridin-3-yl)-N1-(2-hydroxyethyl)-4-(2-isopropylphenyl)piperidine-1,4-dicarboxamide] | 9 nM
COC(=O)Cn1cc(CN2CC(C(=O)Nc3ccc(C)nc3OC(F)F)(c3ccccc3C(C)C)C2)nn1 [Ex 11-48, methyl 2-(4-((3-((2-(difluoromethoxy)-6-methylpyridin-3-yl)carbamoyl)-3-(2-isopropylphenyl)azetidin-1-yl)methyl)-1H-1,2,3-triazol-1-yl)acetate] | 304 nM
CCOC(=O)c1cnc(N2CC(C(=O)Nc3ccc(C)nc3OC(F)F)(c3ccccc3C(C)C)C2)o1 [Ex 18-31, ethyl 2-(3-((2-(difluoromethoxy)-6-methylpyridin-3-yl)carbamoyl)-3-(2-isopropylphenyl)azetidin-1-yl)oxazole-5-carboxylate] | 20 nM
Cc1ccc(NC(=O)C2(c3ccccc3C(C)C)CN(S(=O)(=O)CCC(=O)O)C2)c(OC(F)F)n1 [Ex 13-5, 3-((3-((2-(difluoromethoxy)-6-methylpyridin-3-yl)carbamoyl)-3-(2-isopropylphenyl)azetidin-1-yl)sulfonyl)propanoic acid] | 4 nM
COC(=O)c1cccc(CN2CC(C(=O)Nc3ccc(C)nc3OC(F)F)(c3ccccc3C(C)C)C2)n1 [Ex 11-45, methyl 6-((3-((2-(difluoromethoxy)-6-methylpyridin-3-yl)carbamoyl)-3-(2-isopropylphenyl)azetidin-1-yl)methyl)picolinate] | 64 nM
Cc1ccc(NC(=O)C2(c3ccccc3C(C)C)CN(c3cccc(C(=O)O)n3)C2)c(OC(F)F)n1 [Ex 18-3, 6-(3-((2-(difluoromethoxy)-6-methylpyridin-3-yl)carbamoyl)-3-(2-isopropylphenyl)azetidin-1-yl)picolinic acid] | 7 nM
Cc1ccc(NC(=O)C2(c3ccccc3C(C)C)CN(C(=O)NC(C)(C)C(=O)O)C2)c(OC(F)F)n1 [Ex 17-13, 2-(3-((2-(difluoromethoxy)-6-methylpyridin-3-yl)carbamoyl)-3-(2-isopropylphenyl)azetidine-1-carboxamido)-2-methylpropanoic acid] | 25 nM

Compound | IC50
Cc1ccc(NC(=O)C2(c3ccccc3C(C)C)CN(CCCC(C)(C)O)C2)c(OC(F)F)n1 [Ex 11-66, N-(2-(difluoromethoxy)-6-methylpyridin-3-yl)-1-(4-hydroxy-4-methylpentyl)-3-(2-isopropylphenyl)azetidine-3-carboxamide] | 14 nM
COc1cc(Br)cnc1NC(=O)C1(c2ccccc2C(C)C)CN(S(N)(=O)=O)C1 [Ex 81-2, N-(5-bromo-3-methoxypyridin-2-yl)-3-(2-isopropylphenyl)-1-sulfamoylazetidine-3-carboxamide] | 13 nM
Cc1ccc(NC(=O)C2(c3ccccc3C(C)C)CN(C[C@@H](O)CNC(=O)CO)C2)c(OC(F)F)n1 [Ex 11-86, (S)-N-(2-(difluoromethoxy)-6-methylpyridin-3-yl)-1-(2-hydroxy-3-(2-hydroxyacetamido)propyl)-3-(2-isopropylphenyl)azetidine-3-carboxamide] | 10 nM
Cc1ccc(NC(=O)C2(c3ccccc3C(C)C)CN(Cc3nnn[nH]3)C2)c(OC(F)F)n1 [Ex 11-8, 1-((1H-tetrazol-5-yl)methyl)-N-(2-(difluoromethoxy)-6-methylpyridin-3-yl)-3-(2-isopropylphenyl)azetidine-3-carboxamide] | 55 nM
CCOc1nc(C)ccc1NC(=O)C1(c2ccccc2C(C)C)CN(S(N)(=O)=O)C1 [Ex 15-17, N-(2-ethoxy-6-methylpyridin-3-yl)-3-(2-isopropylphenyl)-1-sulfamoylazetidine-3-carboxamide] | 31 nM
CNS(=O)(=O)CC(=O)N1CC(C(=O)Nc2ccc(C)nc2OC(F)F)(c2ccccc2C(C)C)C1 [Ex 12-6, N-(2-(difluoromethoxy)-6-methylpyridin-3-yl)-3-(2-isopropylphenyl)-1-(2-(N-methylsulfamoyl)acetyl)azetidine-3-carboxamide] | 13 nM
Cc1ccc(NC(=O)C2(c3ccccc3C(C)C)CN(C(=O)CS(=O)(=O)O)C2)c(OC(F)F)n1 [Ex 12-3, 2-(3-((2-(difluoromethoxy)-6-methylpyridin-3-yl)carbamoyl)-3-(2-isopropylphenyl)azetidin-1-yl)-2-oxoethane-1-sulfonic acid] | 16 nM
Cc1ccc(NC(=O)C2(c3ccccc3C(C)C)CN(c3cc(F)ccn3)C2)c(OC(F)F)n1 [Ex 18-18, N-(2-(difluoromethoxy)-6-methylpyridin-3-yl)-1-(4-fluoropyridin-2-yl)-3-(2-isopropylphenyl)azetidine-3-carboxamide] | 1 nM
Cc1ccc(NC(=O)C2(c3ccccc3C(C)C)CCNCC2)c(OC(F)F)n1 [Ex 4, N-(2-(difluoromethoxy)-6-methylpyridin-3-yl)-4-(2-isopropylphenyl)piperidine-4-carboxamide] | 8 nM
Cc1ccc(NC(=O)C2(c3ccccc3C(C)C)CN(C(=O)CC3CCN(CCF)CC3)C2)c(OC(F)F)n1 [Ex 12-141, N-(2-(difluoromethoxy)-6-methylpyridin-3-yl)-1-(2-(1-(2-fluoroethyl)piperidin-4-yl)acetyl)-3-(2-isopropylphenyl)azetidine-3-carboxamide] | 204 nM
Cc1ccc(NC(=O)C2(c3ccccc3C(C)C)CN(C(=O)OC3(C(=O)O)CC3)C2)c(OC(F)F)n1 [Ex 14-8, 1-((3-((2-(difluoromethoxy)-6-methylpyridin-3-yl)carbamoyl)-3-(2-isopropylphenyl)azetidine-1-carbonyl)oxy)cyclopropane-1-carboxylic acid] | 14 nM
Cc1ccc(NC(=O)C2(c3cc(F)ccc3C(C)C)CN(C(=O)CC(C)(C)C(=O)O)C2)c(OC(F)F)n1 [Ex 39-5, 4-(3-((2-(difluoromethoxy)-6-methylpyridin-3-yl)carbamoyl)-3-(5-fluoro-2-isopropylphenyl)azetidin-1-yl)-2,2-dimethyl-4-oxobutanoic acid] | 10 nM
Cc1ccc(NC(=O)C2(c3ccccc3C(C)C)CN(C(=O)C3CS(=O)(=O)C3)C2)c(OC(F)F)n1 [Ex 12-129, N-(2-(difluoromethoxy)-6-methylpyridin-3-yl)-1-(1,1-dioxidothietane-3-carbonyl)-3-(2-isopropylphenyl)azetidine-3-carboxamide] | 58 nM
CCOC(=O)C1(NC(=O)N2CC(C(=O)Nc3ccc(C)nc3OC(F)F)(c3ccccc3C(C)C)C2)CC1 [Ex 17-10, ethyl 1-(3-((2-(difluoromethoxy)-6-methylpyridin-3-yl)carbamoyl)-3-(2-isopropylphenyl)azetidine-1-carboxamido)cyclopropane-1-carboxylate] | 13 nM
Cc1ccc(NC(=O)C2(c3ccccc3C(C)C)CN(C(=O)CC3CCC(C(=O)O)CC3)C2)c(OC(F)F)n1 (stereo not shown) [Ex 52, 4-(2-(3-((2-(difluoromethoxy)-6-methylpyridin-3-yl)carbamoyl)-3-(2-isopropylphenyl)azetidin-1-yl)-2-oxoethyl)cyclohexane-1-carboxylic acid] | 51 nM
